This is an account of results in ChEMBL document CHEMBL1124940, “N-[(arylmethoxy)phenyl] carboxylic acids, hydroxamic acids, tetrazoles, and sulfonyl carboxamides. Potent orally active leukotriene D4 antagonists of novel structure” (J Med Chem, 1990).

Data set [1] deals with Cavia porcellus. Put plainly: Inhibition of LTD4-induced broncho constriction in Guinea pig after intragastrical administration of a dose of 25 mg/kg. As to conditions: po, route intragastric. Format: functional.
Data set [2] relates to Cavia porcellus. Nature of the data set: Tested for the inhibition of LTD4-induced broncho constriction in Guinea pig, injected intraduodenally at a dose of 25 mg/kg. Format: functional. As to conditions: route intraduodenal.
Data set [3] relates to Cavia porcellus. Nature of the data set: Dissociation constant was determined In vitro in isolated guinea pig trachea after intraduodenal administration. Format: ADME, organism-based. As to conditions: in vivo, other.
Data set [4] has as its system Cavia porcellus. Put plainly: In vitro for inhibition of ovalbumin-induced bronchoconstriction in isolated guinea pig trachea by injecting intraduodenally. Format: functional. As to conditions: intraduodenal.
For data set [5], the system named is Cavia porcellus. Nature of the data set: In vitro inhibition of LTD4-induced bronchoconstriction after intragastrical administration 120 min before agonist into isolated guinea pig trachea. It is filed as functional. As to conditions: po.
Data set [6] relates to Cavia porcellus. Put plainly: In vitro inhibition of ovalbumin-induced bronchoconstriction after intragastrical administration 120 min before agonist into isolated guinea pig trachea. It is filed as functional. As to conditions: po.
Data set [7] concerns Cavia porcellus. Nature of the data set: Examined in vitro for LTD4-induced bronchoconstriction in isolated guinea pig trachea by injecting intraduodenally. Format: functional. As to conditions: intraduodenal.
The target of data set [8] is T1, Polyunsaturated fatty acid 5-lipoxygenase (Rattus norvegicus, UniProt P12527).
T1 sequence (P12527 whole entry): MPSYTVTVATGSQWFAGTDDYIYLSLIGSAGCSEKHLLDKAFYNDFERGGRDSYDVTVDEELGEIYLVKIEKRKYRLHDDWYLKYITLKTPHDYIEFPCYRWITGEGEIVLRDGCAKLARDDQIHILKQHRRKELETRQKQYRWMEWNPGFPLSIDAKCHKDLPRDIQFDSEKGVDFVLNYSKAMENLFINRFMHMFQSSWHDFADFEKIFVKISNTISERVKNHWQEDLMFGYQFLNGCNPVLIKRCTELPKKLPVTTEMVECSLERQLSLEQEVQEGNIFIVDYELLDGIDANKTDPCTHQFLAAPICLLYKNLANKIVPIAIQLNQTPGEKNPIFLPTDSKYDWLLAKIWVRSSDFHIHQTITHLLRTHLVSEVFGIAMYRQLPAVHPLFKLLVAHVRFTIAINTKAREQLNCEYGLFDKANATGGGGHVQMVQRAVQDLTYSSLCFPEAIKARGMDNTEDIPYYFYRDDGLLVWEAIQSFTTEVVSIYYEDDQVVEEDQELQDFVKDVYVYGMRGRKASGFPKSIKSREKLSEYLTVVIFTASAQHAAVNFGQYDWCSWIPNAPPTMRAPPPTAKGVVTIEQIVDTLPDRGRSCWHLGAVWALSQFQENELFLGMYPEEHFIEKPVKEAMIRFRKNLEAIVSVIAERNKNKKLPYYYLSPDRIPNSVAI
Nature of the data set: Concentration for 50% inhibition of A-23187-stimulated radiolabeled 5-HETE and TXB2 synthesis by PMN 5-lipoxygenase. Format: functional.

For another data set, the target named is T2, Cyclooxygenase (Rattus norvegicus, UniProt P35355+Q63921).
T2 sequence (P35355 whole entry): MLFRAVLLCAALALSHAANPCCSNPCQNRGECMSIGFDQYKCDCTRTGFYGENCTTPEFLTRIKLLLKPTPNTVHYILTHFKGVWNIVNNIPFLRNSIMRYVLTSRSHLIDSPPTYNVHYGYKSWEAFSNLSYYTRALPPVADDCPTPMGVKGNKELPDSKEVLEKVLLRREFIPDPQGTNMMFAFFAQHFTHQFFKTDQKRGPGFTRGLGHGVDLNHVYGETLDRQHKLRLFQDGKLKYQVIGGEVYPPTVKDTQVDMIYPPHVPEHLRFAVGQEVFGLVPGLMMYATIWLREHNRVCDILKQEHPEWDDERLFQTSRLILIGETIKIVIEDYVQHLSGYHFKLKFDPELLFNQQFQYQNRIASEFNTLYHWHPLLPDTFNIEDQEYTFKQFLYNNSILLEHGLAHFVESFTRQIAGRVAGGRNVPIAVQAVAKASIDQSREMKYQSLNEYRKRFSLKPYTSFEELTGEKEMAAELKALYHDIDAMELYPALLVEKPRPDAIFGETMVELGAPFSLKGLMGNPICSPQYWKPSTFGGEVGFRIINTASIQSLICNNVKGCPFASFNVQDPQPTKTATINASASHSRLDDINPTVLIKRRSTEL
T2 sequence (Q63921 whole entry): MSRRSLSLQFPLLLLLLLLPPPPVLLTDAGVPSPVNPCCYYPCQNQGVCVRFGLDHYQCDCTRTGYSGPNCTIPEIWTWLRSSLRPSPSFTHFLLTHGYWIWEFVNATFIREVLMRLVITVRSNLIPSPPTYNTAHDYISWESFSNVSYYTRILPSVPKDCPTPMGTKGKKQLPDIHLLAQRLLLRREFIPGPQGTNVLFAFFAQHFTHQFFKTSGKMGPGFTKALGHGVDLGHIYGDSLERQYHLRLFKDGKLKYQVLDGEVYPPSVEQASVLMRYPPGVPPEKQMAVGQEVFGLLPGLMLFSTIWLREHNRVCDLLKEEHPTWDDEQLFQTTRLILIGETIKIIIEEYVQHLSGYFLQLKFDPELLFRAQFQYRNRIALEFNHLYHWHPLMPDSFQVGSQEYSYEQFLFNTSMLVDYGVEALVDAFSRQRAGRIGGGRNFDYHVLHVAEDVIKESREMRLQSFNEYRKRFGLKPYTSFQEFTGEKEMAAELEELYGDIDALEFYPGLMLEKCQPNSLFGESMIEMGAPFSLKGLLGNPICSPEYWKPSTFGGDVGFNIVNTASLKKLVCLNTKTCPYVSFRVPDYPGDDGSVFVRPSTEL
Put plainly: Concentration for 50% inhibition of A-23187-stimulated radiolabeled 5-HETE and TXB2 synthesis by Prostaglandin G/H synthase. It is filed as protein assay.

Data set [9] has as its system Cavia porcellus. Put plainly: Dissociation constant was determined in vitro after intraduodenal administration in isolated guinea pig trachea. Format: ADME, organism-based. As to conditions: in vivo, other.
Data set [10] has as its system Cavia porcellus. Nature of the data set: Inhibition of LTD4-induced broncho constriction in Guinea pig after intraduodenal administration of a dose of 3 mg/kg. Format: functional.
Data set [11] deals with Cavia porcellus. Nature of the data set: In vitro inhibition of LTD4-induced bronchoconstriction into isolated guinea pig trachea by injecting intragastrically. It is filed as functional. As to conditions: po.
Data set [12] concerns Cavia porcellus. Nature of the data set: Tested for the inhibition of ovalbumin induced bronchoconstriction in Guinea pig, compound injected intraduodenally, dose is 10 mg/kg. It is filed as functional. As to conditions: route intraduodenal.
The test system of data set [13] is Cavia porcellus. Nature of the data set: Tested for the inhibition of ovalbumin induced bronchoconstriction in Guinea pig, compound injected intraduodenally, dose is 25 mg/kg. It is filed as functional. As to conditions: route intraduodenal.
The test system of data set [14] is Cavia porcellus. Nature of the data set: Tested for the inhibition of ovalbumin- induced bronchoconstriction in Guinea pig, compound injected intragastrically, dose of 3 mg/kg. Format: functional. As to conditions: po, route intragastric.
Data set [15] relates to Cavia porcellus. Put plainly: Tested for the inhibition of LTD4-induced bronchoconstriction in Guinea pig, compound injected intragastrically, dose of 25 mg/kg. Format: functional. As to conditions: po, route intragastric.
Data set [16] relates to Cavia porcellus. Put plainly: In vitro inhibition of LTD4-induced bronchoconstriction in isolated guinea pig trachea by injecting intraduodenally. Format: functional. As to conditions: intraduodenal.
Data set [17] relates to Cavia porcellus. Put plainly: In vitro Inhibition of ovalbumin-induced bronchoconstriction in isolated guinea pig trachea by injecting intraduodenally. It is filed as functional. As to conditions: intraduodenal.
Data set [18] deals with Cavia porcellus. Nature of the data set: Tested for the inhibition of ovalbumin- induced bronchoconstriction in Guinea pig, compound injected intragastrically, dose of 25 mg/kg. It is filed as functional. As to conditions: po, route intragastric.
Data set [19] is filed under the species Cavia porcellus. Nature of the data set: Dose of antagonist that produces 50% inhibition of ovalbumin-induced bronchoconstriction. Format: functional.
A further data set deals with Rattus norvegicus. Put plainly: Antiinflammatory effect was studied in a rat carrageenan paw edema (CE) assay at 50 mg/kg. It is filed as functional.
Data set [20] relates to Cavia porcellus. Put plainly: Tested for the inhibition of LTD4-induced bronchoconstriction in Guinea pig, compound injected intragastrically, dose of 3 mg/kg. Format: functional. As to conditions: po, route intragastric.
Data set [21] concerns Cavia porcellus. Nature of the data set: Inhibition of LTD4-induced broncho constriction in Guinea pig after intragastrical administration of a dose of 0.3 mg/kg. Format: functional. As to conditions: po, route intragastric.
Data set [22] concerns Cavia porcellus. Put plainly: Inhibition of LTD4-induced broncho constriction in Guinea pig after intragastrical administration of a dose of 1 mg/kg. As to conditions: po, route intragastric. It is filed as functional.
Data set [23] has as its system Cavia porcellus. Put plainly: Inhibition of LTD4-induced broncho constriction in Guinea pig after intragastrical administration of a dose of 3 mg/kg. As to conditions: po, route intragastric. Format: functional.
Data set [24] relates to Cavia porcellus. Put plainly: Tested for the inhibition of LTD4-induced broncho constriction in Guinea pig, compound injected intragastrically at a dose of 25 mg/kg. Format: functional. As to conditions: po, route intragastric.

By inhibition in vivo is commonly meant the relative decrease from the control value, in per cent. For the molecule `O=C(O)CCc1cccc(OCc2ccc3ccccc3n2)c1`, in the data set on Cavia porcellus [1], the inhibition in vivo at 25 mg/kg was less than 75%.
As to `c1cc(Cc2nnn[nH]2)cc(OCc2ncc3ccccc3n2)c1`, in the data set on Cavia porcellus [2], the inhibition in vivo at 25 mg/kg is less than 77%.
As to `Cc1ccc(S(=O)(=O)NC(=O)Cc2cccc(OCc3ccc4ccccc4n3)c2)cc1`, the figures for the inhibition in vivo at 25 mg/kg with Cavia porcellus [1] and with Cavia porcellus [2] were less than 16% and less than 75%, respectively.
A word on the pKb: it is the Kb on a negative log10 scale, so that one unit is a factor of ten. Lower therefore signals a high Kb. By ED50 is commonly meant the dose at which the effect has come halfway, by size or by number of responders. The low end stands for an effect at a small dose, the high end for a need for a large dose. Broadly, the IC50 is the concentration at which inhibition is half-maximal. With `O=S(=O)(Nc1cccc(OCc2ccc3ccccc3n2)c1)C(F)(F)F` [RITOLUKAST], the pKb with Cavia porcellus [3] is 7.7. Also, the ED50 is 3 mg/kg in the data set on Cavia porcellus [4], 0.1 mg/kg in the data set with Cavia porcellus [5], 0.6 mg/kg in the data set with Cavia porcellus [6] and 0.3 mg/kg in the data set with Cavia porcellus [7]. The IC50 came out at 2 µM in data set [8] and 9.1 µM at Cyclooxygenase.
Turning to `CONC(=O)Cc1cccc(OCc2ccc3ccccc3n2)c1`, the pKb in the data set with Cavia porcellus [9] worked out at 6.08. The figures for the inhibition in vivo at 3 mg/kg in the data set with Cavia porcellus [10], in the data set on Cavia porcellus [14] and in the data set with Cavia porcellus [20] were 44%, 38% and 2%, respectively. The median effective dose (ED50) worked out at 7.9 mg/kg in the data set with Cavia porcellus [11], 1.8 mg/kg with Cavia porcellus [16], 7.3 mg/kg in the data set on Cavia porcellus [17] and 3.6 mg/kg in the data set filed under Cavia porcellus [19]. Besides, the inhibition in vivo at 10 mg/kg in the data set on Cavia porcellus [12] turned out to be 25%. Moreover, the inhibition in vivo at 25 mg/kg turned out to be 56% with Cavia porcellus [13], 86% with Cavia porcellus [15] and 83% in the data set with Cavia porcellus [18]. Besides, the IC50 in data set [8] was 14.2 µM. Moreover, in the data set on Rattus norvegicus, the inhibition in vivo at 50 mg/kg is less than 41%.
With `O=C(NS(=O)(=O)c1ccccc1)c1cccc(OCc2ccc3ccccc3n2)c1`, the inhibition in vivo at 0.3 mg/kg in the data set on Cavia porcellus [21] was less than 12%. Besides, in the data set on Cavia porcellus [22], the inhibition in vivo at 1 mg/kg was less than 82%.
`c1cc(OCc2ccc3ccccc3n2)cc(-c2nn[nH]n2)c1`: the inhibition in vivo at 25 mg/kg in the data set with Cavia porcellus [1] is less than 89%; in the data set with Cavia porcellus [2], 90%. Further, the inhibition in vivo at 3 mg/kg in the data set on Cavia porcellus [23] turned out to be 13%.
For the molecule `c1ccc(-c2nn[nH]n2)c(OCc2ccc3ccccc3n2)c1`, the inhibition in vivo at 25 mg/kg with Cavia porcellus [2] was less than 31%.
In the case of `CONC(=O)Cc1cccc(OCc2nc3ccccc3s2)c1`, in the data set on Cavia porcellus [1], the inhibition in vivo at 25 mg/kg was less than -4%.
Regarding `CC(C)Cc1ccc(C(C)C(=O)O)cc1` (stereo not given) [IBUPROFEN], the inhibition in vivo at 50 mg/kg in the data set on Rattus norvegicus amounted to 63%.
For the molecule `O=C(Cc1cccc(OCc2ccc3ccccc3n2)c1)NO`, in the data set on Cavia porcellus [2], the inhibition in vivo at 25 mg/kg was less than 14%.
Turning to `O=C(O)Cc1cccc(OCc2ccc3ccccc3n2)c1`, the inhibition in vivo at 25 mg/kg in the data set on Cavia porcellus [24] is less than 99%.
